The structures appear in SMILES notation.

The data set can be described thus: gradient 5% acetonitrile 3 min, to 50% in 2 min, to 85% in 15 min, held 3 min, 100 µL/min. The conditions noted are these: column: Zorbax Extend-C18 2.1 x 50 mm; eluents: water / acetonitrile, 0.1% formic acid. In outline: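 Standards, all pure, were combined into mixtures of ~100 molecules and run at 100 μL/min on a Zorbax Extend-C18 column (2.1 × 50 mm, 1.8 μm) with water and acetonitrile, each containing 0.1% formic acid. A coupled quadrupole time-of-flight mass spectrometer operated in positive and negative ionization mode. Retention time values come from computationally picked adduct peaks, each inspected manually.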
`Nc1ncnc2c1nnn2C1OC(CO)C(O)C1O` (stereo not drawn) gave an RP-LC retention time of 513 s.
The same measure for `Cc1cc(-c2csc(S(=O)(=O)N3CCN(CCOc4ccc(Cl)cc4)CC3)c2)on1`: 760 s; for `Cc1oc(-c2[nH]ncc2C(=O)N2CCCCC2)cc1S(=O)(=O)Nc1ccc(Cl)cc1`: 799 s.
`COCC(=O)NC1CCC12CCN(S(=O)(=O)c1c(C)noc1C)CC2` (stereo not drawn) gave an RP-LC retention time of 740 s.
For the molecule `CC1=C(c2ccc(C)cc2)S(=O)(=O)N=C1N1CCCN(C(=O)c2ccc(C)cc2)CC1`, the RP-LC retention time was 885 s.
For `CS(=O)(=O)N1CCC(C(=O)NC2CCCCCCC2)Oc2ccc(Cl)cc21` (stereo not drawn) the value was 1070 s; for `O=C(Cc1nnc(-c2ccc3ncccc3c2)o1)NC1CCCCC1`, 679 s.
In turn, `COc1ccc(C2(C(=O)N3CCC4(CC3)C(OC)C(=O)N4c3cccc(F)c3)CC2)cc1` (stereo not drawn) yielded an RP-LC retention time of 901 s.
As to `Cc1nn(-c2nc(-c3ccc(Cl)cc3)cs2)c(C)c1CC(=O)N1CCCCCC1`, the RP-LC retention time came to 793 s.
For `O=C(NC1CCCCC1)C1CCCN(c2nccn3nc(-c4ccccc4Cl)cc23)C1` (stereo not drawn) the value was 976 s; for `Cc1sc2ccn(CC(C)C)c(=O)c2c1C(=O)N(C)Cc1ccccc1`, 917 s; for `O=C1C(=O)N(C2CCN(C(=O)c3ccc(Br)o3)CC2)CCN1Cc1ccccc1`, 706 s.
`O=C(Nc1cccc(C(F)(F)F)c1)C1CCCN(c2ncnc3c2nc2n3CCCCC2)C1` (stereo not drawn): the RP-LC retention time came to 958 s.
Molecule `CC(C)Cn1cc(CCNC(=O)Nc2ccc(C(F)(F)F)cc2)c2cccnc21` came in with an RP-LC retention time of 970 s.
`O=C(CN1CCN(Cc2ccc(F)cc2)C1=O)NCc1cc(F)cc(F)c1` returned an RP-LC retention time of 826 s.
In the case of `Cc1noc(-c2cc(=O)n(CC(=O)NCc3ccccc3)c3ccccc23)n1`, the RP-LC retention time was determined as 812 s.
With `Cc1onc(-c2ccccc2)c1-c1ccc(S(N)(=O)=O)cc1`, the RP-LC retention time is 869 s.
For the molecule `Cc1ccc(S(=O)(=O)N2CCCN(c3ccc(=O)n(-c4ccccc4)n3)CC2)cc1`, the RP-LC retention time worked out at 835 s.
`O=C(Cc1ccsc1)N1CCOc2ccc(N3CCOCC3)cc2C1`: the RP-LC retention time amounted to 743 s.
`COc1ccc(NC(=O)C2CCN(c3nnc4ccccn34)CC2)cc1Cl` came in with an RP-LC retention time of 666 s.
`CC(C)C(=O)Nc1ccc(-n2cnc(C(=O)NCc3ccccc3)c2)nc1` had an RP-LC retention time of 738 s.
For `CCC(=O)NCc1nc2c(n1C)CN(S(=O)(=O)c1ccc(F)c(F)c1)CC2`, the RP-LC retention time worked out at 571 s.
`Cn1cc(S(=O)(=O)N2CCC(C(=O)Nc3ccc(F)cc3)CC2)cc1C(=O)N1CCCC1`: the RP-LC retention time was 750 s.
The molecule `COc1cc([C@@H]2c3cc4c(cc3[C@H](O)[C@@H](CO)[C@@H]2C(=O)N2CCOCC2)OCO4)cc(OC)c1OC` had an RP-LC retention time of 632 s.
With `COc1ccc(C2CC(=O)N(c3ccc(C)c(Cl)c3)C(=O)C2)cc1OC`, the RP-LC retention time worked out at 652 s.
For `Cc1ccn2cc(C(=O)NCc3ccc(F)cc3)nc2c1` the value was 645 s.
With `O=C1C2N=NN(Cc3nc(-c4ccc5c(c4)OCO5)no3)C2C(=O)N1c1ccc2c(c1)CCC2` (stereo not drawn), the RP-LC retention time came to 1000 s.
`Cc1ccc(S(=O)(=O)N2C(=O)CCC2C(=O)NC2CCCCCCC2)cc1` (stereo not drawn) gave an RP-LC retention time of 1010 s.
Molecule `CCCn1cc(CCNC(=O)Nc2ccc(C)c(Cl)c2)c2cccnc21` returned an RP-LC retention time of 884 s.
Take `CSc1ccc(CNC(=O)Cn2c(=O)c3cccn3c3ccc(F)cc32)cc1`: the RP-LC retention time turned out to be 861 s.
Regarding `CC(NC(=O)Cc1ccc(Cl)cc1)C(=O)Nc1nc2ccccc2[nH]1` (stereo not drawn), the RP-LC retention time worked out at 680 s.
With `CCN1C(=O)c2cccnc2Sc2cc(NC(=O)c3ccc(C)c(C)c3)ccc21`, the RP-LC retention time came out at 918 s.
`O=C(CCCc1nnc(C(=O)Nc2ccccc2)s1)NCCc1c[nH]c2ccc(Cl)cc12` displayed an RP-LC retention time of 889 s.
The molecule `CCOC(=O)c1cnc2ccc(OCC)cc2c1N1CCN(c2ccccc2)CC1` returned an RP-LC retention time of 930 s.
Consider `O=C(Cc1cccs1)N1CCc2c([nH]c3ccccc23)C1c1ccc(F)cc1` (stereo not drawn), for which the RP-LC retention time is 1130 s.
As for `Cc1cccc(Oc2coc3cc(OC(=O)c4ccncc4)ccc3c2=O)c1`, the RP-LC retention time was 984 s.
Molecule `CCOc1ccccc1-c1nc(Cc2noc(-c3ccccc3)n2)c(C)o1` returned an RP-LC retention time of 1170 s.
On to `Cc1nnc(-c2coc(S(=O)(=O)N3CCCCCC3)c2)o1`, for which the RP-LC retention time came out at 824 s.
The same measure for `COc1ccc(-c2nnc(-c3cccc(S(=O)(=O)N4CCCCCC4)c3)o2)cc1OC`: 1020 s; for `CC1CCCN(C(=O)CN2CCN(C)CC2)C1` (stereo not drawn): 536 s.
The same measure for `CCNC(=O)C1CCCN(C(=O)Nc2ccc(NC(=O)Nc3ccc(CC)cc3)cc2)C1` (stereo not drawn): 773 s; for `O=C(NCc1nnc2n1CCCC2)c1ccc2c(c1)OCO2`: 1260 s.
The molecule `Cc1cccc(C(=O)N2C(C(=O)NCC3CCCO3)COC23CCN(C(=O)C(C)(C)C)CC3)c1` (stereo not drawn) yielded an RP-LC retention time of 684 s.
In the case of `O=C(Nc1ccccc1)c1cn2c(n1)CCCC2`, the RP-LC retention time worked out at 577 s.
Take `COc1ccc(C2(C(=O)N3CC(n4ccnc4C(C)C)C3)CC2)cc1`: the RP-LC retention time is 626 s.
Consider `COc1ccccc1NC(=O)Cn1cccc1-c1nnc(C2CCC2)o1`, for which the RP-LC retention time worked out at 942 s.
As to `CCOC(=O)c1c(C)[nH]c(C(=O)N2CCC(CC(=O)NC3CCCCC3)CC2)c1C`, the RP-LC retention time turned out to be 778 s.
With `COCCN1C(=O)c2ccccc2C(C(=O)NCc2ccccn2)C1c1cccs1` (stereo not drawn), the RP-LC retention time came out at 642 s.
`COc1cccc(CNc2c(-c3nc(C(C)C)no3)cnc3nc(C)ccc23)c1` gave an RP-LC retention time of 790 s.
`CCc1ccc(-n2nnc(C(=O)N3CCCCC3C)c2-c2cccnc2)cc1` (stereo not drawn) yielded an RP-LC retention time of 866 s.
For `O=C(c1cnn2c(-c3ccc4c(c3)OCO4)ccnc12)N1CCN(c2ccc(F)cc2)CC1` the value was 890 s.
The same measure for `CCCS(=O)(=O)N1CCc2ccc(NC(=O)c3cccn(C)c3=O)cc2C1`: 731 s; for `CC(=O)OCC1OC(N2CCC(=O)NC2=O)C(OC(C)=O)C1OC(C)=O` (stereo not drawn): 1040 s.
In turn, `CC1=C(c2ccc(F)cc2)S(=O)(=O)N=C1N1CCCN(C(=O)C2CC2)CC1` yielded an RP-LC retention time of 734 s.
For `Cc1nn(C(C)C(=O)NCCCN(C)C2CCCCC2)c(=O)c2c(C)n(-c3ccccc3)nc12` (stereo not drawn), the RP-LC retention time was 675 s.
`O=C(CC(=O)Nc1ccccc1Cl)Nc1ccc2nc3n(c(=O)c2c1)CCCCC3` had an RP-LC retention time of 772 s.
On to `CC1CCCCN1CCNC(=O)c1nc2nc(-c3ccco3)cc(C(F)(F)F)n2n1` (stereo not drawn), for which the RP-LC retention time was determined as 628 s.
The same measure for `COc1ccc(CNC(=O)C(C)n2sc3ccccc3c2=O)cc1OC` (stereo not drawn): 848 s; for `CCCN(C(=O)c1ccccc1OC)c1nc(-c2ccccc2)cs1`: 1310 s; for `COc1ccc(CNC(=O)CN2C(=O)C3CCCCN3c3ccc(C(=O)N(C)C)cc32)c(OC)c1` (stereo not drawn): 756 s.
With `CCCCNC(=O)CN1CCN(C(=O)c2sc3ncccc3c2-n2cccc2)CC1`, the RP-LC retention time is 647 s.
On to `CCN1C(=O)c2cccnc2Sc2cc(NC(=O)CCc3ccccc3OC)ccc21`, for which the RP-LC retention time was 871 s.
For the molecule `Cc1ccc2[nH]c(C(=O)NCC3CCCO3)cc2c1` (stereo not drawn), the RP-LC retention time turned out to be 776 s.
`CCOc1ccc(-c2cn3ccn(-c4cc(C)c(Cl)cc4OC)c(=O)c3n2)cc1` showed an RP-LC retention time of 972 s.
On to `COCCCNC(=O)C1CCN(c2ncccc2S(=O)(=O)N2CCCCC2)CC1`, for which the RP-LC retention time is 728 s.
For `CN(CCc1noc(COc2ccccc2)n1)C(=O)Nc1ccc(F)cc1` the value was 876 s; for `CC(NC(=O)c1ccc(NC(=O)C2CC2)cc1N1CCCCCC1)c1ccccn1` (stereo not drawn), 633 s; for `Cc1ccc(-c2noc(CCn3nc(-c4ccc5c(c4)OCO5)ccc3=O)n2)cc1`, 968 s.
On to `COCCCn1c(=O)c2ccccc2n(Cc2nc(-c3ccccc3C)no2)c1=O`, for which the RP-LC retention time came out at 1020 s.
`CCCCC(=O)Nc1cnc(N2CCNCC2)c(C(=O)N2CCCCC2C)c1` (stereo not drawn): the RP-LC retention time was found to be 619 s.
In turn, `CCn1c(=O)sc2cc(S(=O)(=O)N3CCC(C(=O)NCc4ccccc4)CC3)ccc21` came in with an RP-LC retention time of 845 s.
The same measure for `O=C(NCCOc1ccccc1)Nc1cccs1`: 755 s; for `Cc1nc(-c2ccc(C(F)(F)F)cc2)ncc1C(=O)NCCc1cccs1`: 1120 s; for `Cn1cnc2c(F)c(Nc3ccc(Br)cc3Cl)c(C(=O)NOCCO)cc21`: 789 s.
For `CCn1c(N2CCC(C(=O)NC3CCCCCC3)CC2)cc(=O)n(C)c1=O` the value was 855 s.
The same measure for `COc1ccc(OCC(=O)Nc2ccc3c(c2)CCCN3C(=O)C2CC2)cc1`: 852 s; for `CCOC(=O)C1=C(C)NC2=C(C(=O)C(C(=O)OC)C(C)C2)C1c1ccc(N(C)C)cc1` (stereo not drawn): 631 s; for `CC(=O)C1CC[C@H]2[C@@H]3CC[C@@H]4CC(=O)CC[C@]4(C)[C@H]3CC[C@]12C` (stereo partly drawn): 1050 s.
